Among the test systems are SNB-75 CNS; DU-145 prostate; SNB-78 CNS; ACHN renal; LXFL 529 NSCLC; DMS 273 small cell lung; KM20L2 colon; HT29 colon; XF 498 CNS; HOP-18 NSCLC; UACC-257 melanoma; RXF-631 renal; DLD-1 colon; MDA-N; HS 578T breast; SK-MEL-28 melanoma; SN12K1 renal; P388/ADR leukemia; SR leukemia; DMS 114 small cell lung; P388 leukemia; RXF 393 renal.
Holding throughout (assay): NCI tumour cell line growth inhibition, 48 h

Molecules are shown by their SMILES. “And” between values parts separate entries of the source, which are not always exact repeats. Equal values may be shown once.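 These data come from cells grown in 96-well plates and exposed to compound for 48 hours at five concentrations. GI50 = concentration required for 50% inhibition of growth. TGI is the concentration that stops growth completely.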

On to `CC[C@]1(O)C[C@H]2CN(CCc3c([nH]c4ccccc34)[C@@](C(=O)OC)(c3cc4c(cc3OC)N(C)[C@H]3[C@@](O)(C(=O)OC)[C@H](OC(C)=O)[C@]5(CC)C=CCN6CC[C@]43[C@@H]65)C2)C1`, for which the TGI with SNB-75 CNS is 25 nM and 80.7 nM; with SNB-78 CNS it was 1700 nM; in the assay with LXFL 529 NSCLC, 1060 nM; with DMS 273 small cell lung it was 123 nM; with KM20L2 colon, 1.83 nM; in the assay on HT29 colon it was 124 nM. Besides, the TGI in the assay on XF 498 CNS was 33.3 nM; with HOP-18 NSCLC it was 1510 nM; in the assay with UACC-257 melanoma, 1890 nM and 2500 nM and 16100 nM; in the assay on RXF-631 renal, 1030 nM; in the assay on DLD-1 colon, 2500 nM; with MDA-N, 0.25 nM and 0.771 nM. Also, the TGI in the assay on HS 578T breast is 240 nM and 1370 nM; in the assay on SN12K1 renal, 2.7 nM; in the assay on P388/ADR leukemia it was 931 nM; with DMS 114 small cell lung, 5.81 nM; with P388 leukemia, 139 nM. Moreover, the GI50 in the assay on DU-145 prostate was 0.00748 nM; in the assay on ACHN renal, 0.0527 nM; in the assay on KM20L2 colon, 0.025 nM; with SK-MEL-28 melanoma, 0.00741 nM; in the assay on SR leukemia, < 0.0025 nM; in the assay on RXF 393 renal it was 1.35 nM.

The values above are taken from PubChem BioAssay (NCI).
